Laboratory results published in the OligoGym collection.
HELM strings list units from the 5' end as sugar, base in round brackets, then linkage (d deoxyribose, r ribose, m 2'-O-methyl, p phosphodiester). Strings are as the collection lists them; they lack the last nucleoside at the 3' end of the tested compound. [moe] = 2'-O-(2-methoxyethyl) (MOE); [sp] = phosphorothioate linkage; [m5C] = 5-methylcytosine

Biological target: SOD1
Experiment: mouse, dose not given
Conditions: ASO

Substance | 3 h FOB score
RNA1{[moe]([m5C])[sp].[moe](A)p.[moe](G)[sp].[moe](G)p.[moe](A)[sp].d(T)[sp].d(A)[sp].d([m5C])[sp].d(A)[sp].d(T)[sp].d(T)[sp].d(T)[sp].d([m5C])[sp].d(T)[sp].d(A)[sp].[moe]([m5C])p.[moe](A)[sp].[moe](G)p.[moe]([m5C])}$$$$ (last 3' nucleoside missing) | 1.25 score 0-7
RNA1{[moe]([m5C])[sp].[moe]([m5C])[sp].[moe](G)[sp].[moe](T)[sp].[moe]([m5C])[sp].d(G)[sp].d([m5C])[sp].d([m5C])[sp].d([m5C])[sp].d(T)[sp].d(T)[sp].d([m5C])[sp].d(A)[sp].d(G)[sp].d([m5C])[sp].[moe](A)[sp].[moe]([m5C])[sp].[moe](G)[sp].[moe]([m5C])}$$$$ (last 3' nucleoside missing) | 6.5 score 0-7
